This note sets out measurements from patent US11851418B2, “Heteroaromatic carboxamide derivatives as plasma kallikrein inhibitors” (Boehringer Ingelheim International GmbH, priority 2020, dated 2023).

Holding throughout (format): biochemical
Assay [1] concerns the target T1, PKK in kaolin activated human platelet poor plasma (Homo sapiens, UniProt P03952).
T1 construct: Platelet poor plasma (PPP) obtained from human wholeblood; from tissue
Kind of assay: Inhibition of PKK in kaolin activated human PPP. As to conditions: kaolin (25, 75, 250, 750 μg/mL) activated human PPP, global fit. On the procedure: Platelet poor plasma (PPP) obtained from human wholeblood, anticoagulated with Na-Citrate, is incubated with various concentrations of the test compound together with either 25, 75, 250, or 750 μg/mL kaolin in assay buffer for 20 min at 37° C. such that for each kaolin dose used a concentration response is obtained for the test compound.

The target in assay [2] is T2, human TK1 (Homo sapiens, UniProt P06870).
T2 construct: purchased R&D Systems
Kind of assay: Inhibition of TK1 (Ki). To be noted: activated human TK1, substrate H-Pro-Phe-Arg-AMC, 24° C.; Ki from IC50 corrected for KM. On the procedure:
(§1) The ability of compounds of formula (I) to inhibit plasma kallikrein (PKK), Factor XIIa (FXIIa), Factor XIa (FXIa), Factor Xa (FXa), Factor IIa (alpha-thrombin; FIIa), plasmin, trypsin, tissue kallikrein 1 (TK1), Factor Vila (FVIIa), or FVIIa complexed with Tissue Factor, phospholipids and CaCl2 (FVIIa/TF/PL/CaCl2) is determined using the following biochemical assays in assay buffer (100 mM Tris, 150 mM NaCL, adjusted to a pH of 7.8 with HCl, and containing 0.1% (w/v) BSA and 0.05% (v/v) Tween20) in the presence of 1% (v/v) DMSO:
Prior to the assay, human TK1 (R&D Systems) is activated by incubation with human trypsin (Calbiochem) in a 1:10,000 ratio for 15 min at 37° C. For assaying TK1 inhibitory activity, activated TK1 (31.25 nM or 1 U/mL) is incubated at 24° C. with 0.1 mM fluorogenic substrate H-Pro-Phe-Arg-AMC (I1295 from Bachem) and various concentrations of the test compound in assay buffer. Measurements are performed in a kinetic interval every 2nd minute for 16 min using a Spectramax M5 (Molecular Devices) with the following settings of the wavelength excitation of 350 nm and wavelength emission of 450 nm.
The pIC50 values are then fitted using a four-parametric fitting procedure using GraphPad Prism (version 6; GraphPad Software, Inc.). […]

Assay [3] has as its target T3, Human PKK (Homo sapiens, UniProt P03952).
T3 construct: purchased Enzyme Research Laboratories
Description: Inhibition of PKK using an endpoint assay. To be noted: fluorogenic substrate H-Pro-Phe-Arg-AMC, 1 h at room temperature. On the procedure:
as §1
Subsequently, PPACK 11 (Calbiochem) is added as a stop solution to achieve a final concentration of 1 μM and fluorescence is measured using an Envision Reader (PerkinElmer) with the wavelength excitation setting of 355 nm and the wavelength emission setting of 460 nm.

Molecules are shown by their SMILES. pIC50, pKi: −log10 of the molar value.

T1 sequence (P03952 391-638 limits assumed): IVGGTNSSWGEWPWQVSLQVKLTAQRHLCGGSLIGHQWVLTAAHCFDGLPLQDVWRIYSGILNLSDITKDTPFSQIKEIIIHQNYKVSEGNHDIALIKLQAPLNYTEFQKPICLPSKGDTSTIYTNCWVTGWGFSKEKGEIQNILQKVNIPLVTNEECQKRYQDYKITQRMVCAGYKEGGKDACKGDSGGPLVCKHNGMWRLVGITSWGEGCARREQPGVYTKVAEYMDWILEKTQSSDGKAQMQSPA
T1 sequence (P03952 20-390 partner limits assumed): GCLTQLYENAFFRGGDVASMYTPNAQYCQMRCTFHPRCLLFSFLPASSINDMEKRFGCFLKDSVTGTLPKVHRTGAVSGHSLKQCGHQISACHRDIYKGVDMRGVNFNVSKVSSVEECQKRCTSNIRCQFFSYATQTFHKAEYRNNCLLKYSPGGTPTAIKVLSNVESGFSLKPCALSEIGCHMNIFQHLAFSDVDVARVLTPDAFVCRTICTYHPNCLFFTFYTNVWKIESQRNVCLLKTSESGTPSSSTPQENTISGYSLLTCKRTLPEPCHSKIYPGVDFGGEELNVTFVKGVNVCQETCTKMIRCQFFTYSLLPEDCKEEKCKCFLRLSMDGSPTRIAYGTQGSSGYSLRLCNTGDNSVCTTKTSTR
T3 sequence (P03952 391-638 limits assumed): as the sequence (P03952 391-638 limits assumed) above
T3 sequence (P03952 20-390 partner limits assumed): as the sequence (P03952 20-390 partner limits assumed) above
T2 sequence (P06870 25-262): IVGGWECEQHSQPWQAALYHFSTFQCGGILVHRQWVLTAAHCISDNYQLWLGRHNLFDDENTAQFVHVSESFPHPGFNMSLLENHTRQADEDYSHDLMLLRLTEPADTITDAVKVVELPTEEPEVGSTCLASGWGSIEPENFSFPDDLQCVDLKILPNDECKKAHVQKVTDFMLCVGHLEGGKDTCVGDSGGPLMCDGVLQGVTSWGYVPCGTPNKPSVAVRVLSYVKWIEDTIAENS

In assay [1], `Cc1[nH]nc2c1CC[C@H]2NC(=O)c1cn(Cc2cnc(N3CC4CC4C3)cc2C(F)(F)F)cn1` (stereo partly drawn) [Example 9, 1-[(6-{3-Azabicyclo[3.1.0]hexan-3-yl}-4-(trifluoromethyl)-pyridin-3-yl)methyl]-N-[(6R)-3-methyl-2H,4H,5H,6H-cyclopenta[c]pyrazol-6-yl]-1H-imidazole-4-carboxamide] gave a concentration for an effect of 90% (IC90) of 539 nM. Also, the negative-log Ki (pKi) in assay [2] was < 5.00. Also, the pIC50 in assay [3] was 8.74.

For `Cc1[nH]nc2c1CC[C@H]2NC(=O)c1cnn(Cc2ccc(N3CC4(CC4)C3)nc2C(F)F)c1` [Example 1, 1-[(6-{5-Azaspiro[2.3]hexan-5-yl}-2-(difluoromethyl)pyridin-3-yl)methyl]-N-[(6R)-3-methyl-2H,4H,5H,6H-cyclopenta[c]pyrazol-6-yl]-1H-pyrazole-4-carboxamide], in assay [1], the 90% effect level (IC90) was put at 182 nM. In assay [3], this compound gave a pIC50 of 9.10.

`Cc1[nH]nc2c1CC[C@H]2NC(=O)c1cn(Cc2ccc(N3CC4C(C3)C4(F)F)nc2C(F)F)cn1` (stereo partly drawn) [Example 11, 1-[(6-{6,6-Difluoro-3-azabicyclo[3.1.0]hexan-3-yl}-2-(difluoromethyl)pyridin-3-yl)methyl]-N-[(6R)-3-methyl-2H,4H,5H,6H-cyclopenta-[c]pyrazol-6-yl]-1H-imidazole-4-carboxamide]: the 90% effect concentration (IC90) in assay [1] was 236 nM.

In assay [1], `Cc1[nH]nc2c1CC[C@H]2NC(=O)c1cnn(Cc2cnc(N3CC4CC4C3)nc2C(F)F)c1` (stereo partly drawn) [Example 2, 1-[(2-{3-Azabicyclo[3.1.0]hexan-3-yl}-4-(difluoromethyl)-pyrimidin-5-yl)methyl]-N-[(6R)-3-methyl-2H,4H,5H,6H-cyclopenta[c]pyrazol-6-yl]-1H-pyrazole-4-carboxamide] had a concentration for an effect of 90% (IC90) of 499 nM. Besides, in assay [3], the negative logarithm of the IC50 (pIC50) is 8.74.

Regarding `Cc1[nH]nc2c1CC[C@H]2NC(=O)c1cn(Cc2ccc(N3CC4(CC4)C3)nc2C(F)F)cn1` [Example 5, 1-[(6-{5-Azaspiro[2.3]hexan-5-yl}-2-(difluoromethyl)-pyridin-3-yl)methyl]-N-[(6R)-3-methyl-2H,4H,5H,6H-cyclopenta[c]pyrazol-6-yl]-1H-imidazole-4-carboxamide], the 90% effect concentration (IC90) in assay [1] is 149 nM.

For the compound `Cc1[nH]nc2c1CC[C@H]2NC(=O)c1cnn(Cc2ccc(N3CC4C(C3)C4(F)F)nc2C(F)F)c1` (stereo partly drawn) [Example 10, 1-[(6-{6,6-Difluoro-3-azabicyclo[3.1.0]hexan-3-yl}-2-(difluoromethyl)pyridin-3-yl)methyl]-N-[(6R)-3-methyl-2H,4H,5H,6H-cyclopenta-[c]pyrazol-6-yl]-1H-pyrazole-4-carboxamide], in assay [1], the IC90 is 242 nM.

Compound `Cc1[nH]nc2c1CC[C@H]2NC(=O)c1cnn(Cc2ccc(N3CC4CC4C3)nc2C(F)(F)F)c1` (stereo partly drawn) [Example 13, 1-[(6-{3-Azabicyclo[3.1.0]hexan-3-yl}-2-(trifluoromethyl)pyridin-3-yl)methyl]-N-[(6R)-3-methyl-2H,4H,5H,6H-cyclopenta[c]pyrazol-6-yl]-1H-pyrazole-4-carboxamide] returned an IC90 in assay [1] of 746 nM. Further, the pKi in assay [2] was < 5.00. Moreover, the pIC50 in assay [3] is 8.72.

Turning to `Cc1[nH]nc2c1CC[C@H]2NC(=O)c1cn(Cc2ccc(N3CC4CC4C3)nc2C(F)F)nn1` (stereo partly drawn) [Example 3, 1-[(6-{3-Azabicyclo[3.1.0]hexan-3-yl}-2-(difluoromethyl)-pyridin-3-yl)methyl]-N-[(6R)-3-methyl-2H,4H,5H,6H-cyclo-penta[c]pyrazol-6-yl]-1H-1,2,3-triazole-4-carboxamide], the IC90 in assay [1] is 486 nM. The compound further gave a pIC50 in assay [3] of 9.05.

Compound `Cc1[nH]nc2c1CC[C@H]2NC(=O)c1cn(Cc2ccc(N3CC4(CC4)C3)nc2C(F)F)nn1` [Example 4, 1-[(6-{5-Azaspiro[2.3]hexan-5-yl}-2-(difluoromethyl)pyridin-3-yl)methyl]-N-[(6R)-3-methyl-2H,4H,5H,6H-cydopenta[c]-pyrazol-6-yl]-1H-1,2,3-triazole-4-carboxamide] displayed an IC90 in assay [1] of 122 nM.

The compound `Cc1[nH]nc2c1CC[C@H]2NC(=O)c1cn(Cc2cnc(N3CC4CC4C3)nc2C(F)F)cn1` (stereo partly drawn) [Example 8, 1-[(2-{3-Azabicyclo[3.1.0]hexan-3-yl}-4-(difluoromethyl)-pyrimidin-5-yl)methyl]-N-[(6R)-3-methyl-2H,4H,5H,6H-cyclopenta[c]pyrazol-6-yl]-1H-imidazole-4-carboxamide] had an IC90 in assay [1] of 305 nM. For the same compound, the pIC50 in assay [3] was 8.68.

With `Cc1[nH]nc2c1CC[C@H]2NC(=O)c1cnn(Cc2cnc(N3CC4CC4C3)cc2C(F)(F)F)c1` (stereo partly drawn) [Example 12, 1-[(6-{3-Azabicyclo[3.1.0]hexan-3-yl}-4-(trifluoromethyl)-pyridin-3-yl)methyl]-N-[(6R)-3-methyl-2H,4H,5H,6H-cyclopenta[c]pyrazol-6-yl]-1H-pyrazole-4-carboxamide], in assay [3], the pIC50 was 8.59.

Regarding `Cc1[nH]nc2c1CC[C@H]2NC(=O)c1cn(Cc2ccc(N3CC4CC4C3)nc2C(F)F)cn1` (stereo partly drawn) [Example 6, 1-[(6-{3-Azabicyclo[3.1.0]hexan-3-yl}-2-(difluoromethyl)-pyridin-3-yl)methyl]-N-[(6R)-3-methyl-2H,4H,5H,6H-cyclopenta[c]pyrazol-6-yl]-1H-imidazole-4-carboxamide], the 90% effect concentration (IC90) in assay [1] worked out at 293 nM.

In the case of `Cc1[nH]nc2c1CC[C@H]2NC(=O)c1cnn(Cc2ccc(N3CC4CC4C3)nc2C(F)F)c1` (stereo partly drawn) [Example 7, 1-[(6-{3-Azabicyclo[3.1.0]hexan-3-yl}-2-(difluoromethyl)-pyridin-3-yl)methyl]-N-[(6R)-3-methyl-2H,4H,5H,6H-cyclopenta[c]pyrazol-6-yl]-1H-pyrazole-4-carboxamide], the IC90 in assay [1] came to 195 nM.

As a reminder, the IC90 is the point of the concentration-response curve where the effect stands at 90%. What is called pKi is −log10 of the Ki, conventionally taken in molar units. A low value points to a large Ki. Broadly, the pIC50 is −log10 of the IC50, conventionally taken in molar units. A lower pIC50 goes with a high IC50.
